Experiment [1] relates to photoreceptor precursor and cone photoreceptor precursor in retinal tissue produced from human ES cells. The experiment in a line: Immunostaining for CRX and TRβ2 and CRX::Venus fluorescence observation of retinal tissue, day 70-75 of suspension culture. Type of experiment: cell-based. Conditions: for CRX-positive and TRβ2-positive cells (cone photoreceptor precursor; proportion to DAPI-positive cells): day 70-75, Control (NUC) about 6.8%; for CRX-positive and TRβ2-positive cells (cone photoreceptor precursor; proportion to DAPI-positive cells) / CRX-positive cells (proportion to DAPI-positive cells) / green fluorescence shown by knocked-in CRX::Venus (order of groups) / cone photoreceptor precursor that emerges in initial stage of development (CRX-positive, TRβ2-expressing) versus Control group / CRX-positive cells (photoreceptor precursors) versus retinal tissue of the Control group: 0.15 nM BMP4, 500 nM Cyclopamine-KAAD; for CRX-positive and TRβ2-positive cells (cone photoreceptor precursor; proportion to DAPI-positive cells) / CRX-positive cells (proportion to DAPI-positive cells): 100 nM LDN193189 or 100 nM SAG from day 22; for CRX-positive cells (proportion to DAPI-positive cells): day 70-75 from start of suspension culture, Control (NUC) about 10.6%; for green fluorescence shown by knocked-in CRX::Venus (order of groups): day 70, fluorescence microscope; for green fluorescence shown by knocked-in CRX::Venus (order of groups) / cone photoreceptor precursor that emerges in initial stage of development (CRX-positive, TRβ2-expressing) versus Control group / CRX-positive cells (photoreceptor precursors) versus retinal tissue of the Control group: 100 nM LDN193189, 100 nM SAG from day 22; for cone photoreceptor precursor that emerges in initial stage of development (CRX-positive, TRβ2-expressing) versus Control group: day 70 or 75; for CRX::Venus-positive cells (GFP immunostaining) versus Control (NUC) group / CRX-positive cells (photoreceptor precursors) versus retinal tissue of the Control group: day 75; for CRX::Venus-positive cells (GFP immunostaining) versus Control (NUC) group: along with change of ALDH1A3 region, 0.15 nM BMP4, 100 nM LDN193189, 100 nM SAG from day 22; for CRX-positive cells (photoreceptor precursors) versus retinal tissue of the Control group: immunostained sections. The protocol: CRX::Venus knock-in human ES cells (derived from KhES-1; Nakano, T. et al. Cell Stem Cell 2012, 10(6), 771-785) were cultured according to the methods described in “Ueno, M. et al. PNAS 2006, 103(25), 9554-9559” “Watanabe, K. et al. Nat Biotech 2007, 25, 681-686”. As a medium for culturing human ES cells, DMEM/F12 medium (Sigma) supplemented with 20% KSR (KnockOut™ Serum Replacement; Invitrogen), 0.1 mM 2-mercaptoethanol, 2 mM L-glutamine, ix non-essential amino acid, 7.5 ng/mL bFGF was used.
A cell aggregate containing a retinal tissue was prepared by the method described in “Kuwahara et al. Nat Commun 2015, 19(6), 6286-” after modification in part. That is, the aforementioned cultured ES cells were individually dispersed using TrypLE Express (Invitrogen), and the individually dispersed human ES cells were suspended in 100 μL of a serum-free medium in a cell non-adhesive 96 well plate (SUMILON spheroid plate, SUMITOMO BAKELITE CO., LTD.) at 9×10^3 cells per well to allow rapid formation of aggregates, after which they were cultured at 37° C., 5% CO2. As the serum-free medium therefor, a serum-free medium obtained by adding 10% KSR, 450 μM 1-monothioglycerol, 1× Chemically defined lipid concentrate, 5 mg/mL BSA, 20 μM Y27632 to a 1:1 mixture of F-12 medium and IMDM medium was used. At 6 days after the start of suspension culture, BMP4 at a final concentration of 1.5 nM was added and suspension culture was continued. A half amount of the culture medium in the well was exchanged with the above-mentioned medium not supplemented with a BMP signal transduction pathway agonist every 3 or 4 days. A cell aggregate containing a retinal tissue at day 18 from the start of suspension culture was cultured in suspension in a serum-free medium (DMEM/F12 medium supplemented with 1% N2 supplement) containing 3 μM CHIR99021 and 5 μM SU5402 for 4 days, namely, up to day 22 from the start of suspension culture. Thereafter, suspension culture of the cell aggregate containing the retinal tissue was continued until it was appropriately used for analysis and the like. As the culture medium during this period, serum-containing media shown in the following to [3] were used and the cell aggregate was cultured under 5% CO2 conditions.
[1] day 22 to day 38 from the start of suspension culture; DMEM/F12 medium supplemented with 10% fetal calf serum, 1% N2 supplement, and 100 μM taurine. day 38 to day 60 from the start of suspension culture; a 1:3 mixed medium of DMEM/F12 medium supplemented with 10% fetal calf serum, 1% N2 supplement, and 100 μM taurine, and Neurobasal medium supplemented with 10% fetal calf serum, 2% B27 supplement, and 100 μM taurine. after day 60 from the start of suspension culture; Neurobasal medium supplemented with 10% fetal calf serum, 2% B27 supplement, and 100 μM taurine.
[1] Control group (FIG. 2a, f, k, p); according to the method described in Example 1, culture was performed up to day 70 or day 75 from the start of suspension culture and without addition. [2]+BMP group (FIG. 2b, g, 1, q); 0.15 nM BMP4 was added from day 22 from the start of suspension culture to completion of suspension culture, and cultured up to day 70 or day 75 from the start of suspension culture. [3]+Cyclopamine-KAAD group (FIG. 2c, h, m, r); 500 nM Cyclopamine-KAAD was added from day 22 from the start of suspension culture to completion of the suspension culture, and cultured up to day 70 or day 75 from the start of suspension culture. [4]+LDN193189 group (FIG. 2d, i, n, s); 100 nM LDN193189 was added from day 22 from the start of suspension culture to completion of the suspension culture, and cultured up to day 70 or day 75 from the start of suspension culture. [5]+SAG group (FIG. 2e, j, o, t); 100 nM SAG was added from day 22 from the start of suspension culture to completion of the suspension culture, and cultured up to day 70 or day 75 from the start of suspension culture. […]

The next experiment relates to ALDH1A1. As to the kind of experiment: Immunostaining for ALDH1A1 (dorsal marker) of retinal tissue. Type of experiment: cell-based, human. The protocol: [1] Control group (FIG. 2a, f, k, p); according to the method described in Example 1, culture was performed up to day 70 or day 75 from the start of suspension culture and without addition. [2]+BMP group (FIG. 2b, g, 1, q); 0.15 nM BMP4 was added from day 22 from the start of suspension culture to completion of suspension culture, and cultured up to day 70 or day 75 from the start of suspension culture. [3]+Cyclopamine-KAAD group (FIG. 2c, h, m, r); 500 nM Cyclopamine-KAAD was added from day 22 from the start of suspension culture to completion of the suspension culture, and cultured up to day 70 or day 75 from the start of suspension culture. [4]+LDN193189 group (FIG. 2d, i, n, s); 100 nM LDN193189 was added from day 22 from the start of suspension culture to completion of the suspension culture, and cultured up to day 70 or day 75 from the start of suspension culture. [5]+SAG group (FIG. 2e, j, o, t); 100 nM SAG was added from day 22 from the start of suspension culture to completion of the suspension culture, and cultured up to day 70 or day 75 from the start of suspension culture.
The retinal tissue produced by the methods described in Example 2 and Example 7 was fixed with 4% para-formaldehyde, cryosections were prepared, and immunostaining for ALDH1A1 was performed. The retinal tissue used was one on day 75 from the start of suspension culture similar to Example 2 and one on about day 40 from the start of suspension culture and cultured under the same conditions except the culture period as in Example 7.

Where [2] appears, read: about day 40 from start of suspension culture, 0.15 nM BMP4, 100 nM LDN193189, 100 nM SAG from day 22.

The source of these data is patent US20200277571A1, “METHOD FOR AMPLIFYING CONE PHOTORECEPTORS OR ROD PHOTORECEPTORS USING DORSALIZATION SIGNAL TRANSMITTER OR VENTRALIZATION SIGNAL TRANSMITTER” (RIKEN, priority 2017, published 2020).

As to `c1ccc2c(-c3cnn4cc(-c5ccc(N6CCNCC6)cc5)cnc34)ccnc2c1` [LDN193189, 4-[6-(4-piperazin-1-ylphenyl)pyrazolo[1,5-a]pyrimidin-3-yl]quinoline], in experiment [1], the “CRX-positive and TRβ2-positive cells (cone photoreceptor precursor; proportion to DAPI-positive cells)” value (from here on “CRX-positive and TRβ2-positive cells”) was about 4.5%; the “CRX-positive cells (proportion to DAPI-positive cells)” value is “about 6.8%”; the “green fluorescence shown by knocked-in CRX::Venus (order of groups)” value (from here on “green fluorescence shown”) is “observed more in the order of +BMP4 group, +Cyclopamine-KAAD group, Control group, +LDN193189 group, +SAG group”; the “cone photoreceptor precursor that emerges in initial stage of development (CRX-positive, TRβ2-expressing) versus Control group” value is reported as “less”. Moreover, in experiment [1], the “CRX::Venus-positive cells (GFP immunostaining) versus Control (NUC) group” value is “decreased” and the “CRX-positive cells (photoreceptor precursors) versus retinal tissue of the Control group” value is listed as “less”. In the experiment on ALDH1A1 (setting [2]), the “clear ALDH1A1-positive region (dorsal region)” value (shortened to “clear ALDH1A1-positive region”) is on record as “not found”.

Consider `CC1=C2C[C@H]3[C@@H](CC=C4CC(=O)CC[C@@]43C)[C@@H]2CC[C@]12O[C@@H]1C[C@H](C)CN(CCNC(=O)CCCCCNC(=O)CCc3ccccc3)[C@H]1[C@H]2C` [Cyclopamine-KAAD], for which, in experiment [1], the “CRX-positive and TRβ2-positive cells” value is about 8.1%; the “CRX-positive cells (proportion to DAPI-positive cells)” value is listed as about 14.1%; the “green fluorescence shown” value was “observed more in the order of +BMP4 group, +Cyclopamine-KAAD group, Control group, +LDN193189 group, +SAG group”; the “cone photoreceptor precursor that emerges in initial stage of development (CRX-positive, TRβ2-expressing) versus Control group” value is “observed more”. In addition, the “CRX-positive cells (photoreceptor precursors) versus retinal tissue of the Control group” value in experiment [1] is recorded as “Slightly more”.

On to `CNC1CCC(N(Cc2cccc(-c3ccncc3)c2)C(=O)c2sc3ccccc3c2Cl)CC1` (stereo not drawn) [SAG], for which, in experiment [1], the “CRX-positive and TRβ2-positive cells” value was about 3.2%; the “CRX-positive cells (proportion to DAPI-positive cells)” value is given as about 5.1%; the “green fluorescence shown” value is given as “observed more in the order of +BMP4 group, +Cyclopamine-KAAD group, Control group, +LDN193189 group, +SAG group”; the “cone photoreceptor precursor that emerges in initial stage of development (CRX-positive, TRβ2-expressing) versus Control group” value was “less”. For the same compound, in experiment [1], the “CRX::Venus-positive cells (GFP immunostaining) versus Control (NUC) group” value is on record as “decreased” and the “CRX-positive cells (photoreceptor precursors) versus retinal tissue of the Control group” value is on record as “lesser”. Besides, the “clear ALDH1A1-positive region” value in the experiment on ALDH1A1 (setting [2]) is on record as “not found”.

For “BMP4: BMP protein; BMP signal transduction pathway agonist used as dorsalization signal transmitter”, in experiment [1], the “CRX-positive and TRβ2-positive cells” value was “about 10.8%”; the “CRX-positive cells (proportion to DAPI-positive cells)” value is recorded as “about 17.0%”; the “green fluorescence shown” value is “observed more in the order of +BMP4 group, +Cyclopamine-KAAD group, Control group, +LDN193189 group, +SAG group”; the “cone photoreceptor precursor that emerges in initial stage of development (CRX-positive, TRβ2-expressing) versus Control group” value is “observed more”. For the same compound, in experiment [1], the “CRX::Venus-positive cells (GFP immunostaining) versus Control (NUC) group” value is listed as “increased” and the “CRX-positive cells (photoreceptor precursors) versus retinal tissue of the Control group” value is recorded as “clearly higher”. For the same compound, in the experiment on ALDH1A1 (setting [2]), the “clear ALDH1A1-positive region” value is given as “found only in +BMP4 group”. The “clear ALDH1A1-positive region” value with ALDH1A1 (day 75 from start of suspension culture, 0.15 nM BMP4 from day 22) is “not observed”.
